# Entries after “also recorded” stand apart in the source; their conditions may differ.
# Experiments:
# [1] = target: SIK3 (Homo sapiens, UniProt Q9Y2K2); experiment: CRTC2 activity as a measure of SIK3 inhibitory activity; type: cell-based; details: 150 μM
# Experimental: Comparative evaluation of pterosin derivatives was performed in terms of the inhibitory effect on SIK3 signaling. As a measure of the SIK3 inhibitory activity, the induced activity of the transcription coupling factor CRTC2 (which is also referred to as TORC2, serves as a coupling factor of the transcription factor CREB, and is an inhibition target of SIK3) was measured according to the method described in PCT/JP2012/063709.
# [2] = test system: mouse primary chondrocytes; experiment: safranin O staining of pellet-cultured mouse primary chondrocytes; type: cell-based; details: cell pellet, 100, 200 or 300 μM, 28 days after addition
# Experimental: (§1) Primary chondrocytes obtained from the distal femoral epiphyseal cartilage and the proximal tibial epiphyseal cartilage of 1- to 5-day-old mice were pelletized by centrifugation, and to the cell pellet, the extracted pterosin B at a given concentration (0 μM (only DMSO as a vehicle), 100 μM, 200 μM or 300 μM) was added in DMEM supplemented with 10% fetal calf serum. […] In addition, the mRNA amounts of Col2a1, Col10a1 and Sik3 relative to Gapdh in the cell pellet were measured by quantitative RT-PCR. […] Col2a1 is a gene relevant to […], and Col10a1 is a gene indicative of hypertrophic differentiation of chondrocytes.
# [3] = test system: mouse primary chondrocytes; experiment: quantitative RT-PCR in pellet-cultured mouse primary chondrocytes; type: cell-based; details: for mRNA amount of Col10a1 relative to Gapdh: cell pellet, 300 μM, 2 or 4 weeks after addition
# Experimental: as §1
# In the same manner as in Example 1, primary chondrocytes obtained from 1- to 5-day-old mice were pelletized, and to the cell pellet, a pterosin derivative (synthesized pterosin B or pterosin Z) at 300 μM was added in DMEM supplemented with 10% fetal calf serum. At 2 or 4 weeks after the addition, the cell pellet was collected and the mRNA amount of Col10a1 relative to Gapdh was measured by quantitative RT-PCR. As a result, it was shown that Col10a1 was decreased by the addition of pterosin Z as well as the addition of the synthesized pterosin B (FIG. 9).
# [4] = test system: embryonic mouse metatarsal bone; experiment: tissue culture of embryonic mouse metatarsal bone, safranin O, BrdU and Col10a1 staining; type: cell-based; details: 300 μM, 7 days
# Experimental: The metatarsal bone was isolated from a mouse embryo of E15.5, and tissue culture of the bone was performed in DMEM supplemented with 10% fetal calf serum. To the culture medium, 300 μM of the extracted pterosin B or the synthesized pterosin B was added, and the culture was further continued. Seven days later, the metatarsal bone was collected and its histological sections were prepared. At 8 hours before the collection of the metatarsal bone, BrdU was added to the culture medium. The histological sections of the metatarsal bone were stained with safranin O and immunostained with an anti-BrdU antibody. As a result, it was shown that, in the presence of the extracted pterosin B or the synthesized pterosin B, the safranin O-stained area and the BrdU-positive cell number were increased (FIGS. 2 and 3). Meanwhile, the number of hypertrophic chondrocytes was decreased in the presence of the extracted pterosin B or the synthesized pterosin B (FIG. 4).
# [5] = test system: human chondrocytes; experiment: safranin O staining of pellet-cultured human primary chondrocytes; type: cell-based; details: 300 μM, on and after 14 days (14 or 28 days)
# Experimental: (§2) Chondrocytes collected from a person with medial compartmental idiopathic osteonecrosis under informed consent were cultured in DMEM (Dulbecco's Modified Eagle's Medium) supplemented with 10% fetal calf serum for 7 days (an image of a 3-day culture is shown in FIG. 5A), and then pelletized by centrifugation (FIG. 5A). The human chondrocyte pellet was cultured in DMEM supplemented with 10% fetal calf serum and 300 μM of the extracted pterosin B for 14 or 28 days. The cell pellet was collected and then stained with safranin O. As a result, it was shown that the staining intensity in the presence of the extracted pterosin B was increased on and after 14 days from the addition of the extracted pterosin B (FIG. 5B). In addition, the mRNA amounts of COL2A1, COL11A2, ACAN, SOX9, COL10A1 and COL1A1 relative to GAPDH in the cell pellet were measured by quantitative RT-PCR. As a result, the mRNA amounts of COL2A1, COL11A2, ACAN and SOX9 were increased by the addition of the […] pterosin B, while the mRNA amounts of COL10A1 and COL1A1 were decreased by the addition of the extracted pterosin B (FIG. 6). […] Therefore, pterosin B is considered to have the effect of promoting hyaline cartilage growth in humans as well.
# [6] = test system: articular cartilage on the medial femoral epicondyle; experiment: intra-articular administration into the knee of C57BL/6 mice, articular cartilage histology; type: in vivo, mouse; details: 3 times a week, 4 weeks
# Excerpt: After the administration was continued for 4 weeks, the knee joint was dissected and then stained with safranin O/fast green/iron hematoxylin.
# [7] = test system: human chondrocytes; experiment: quantitative RT-PCR in pellet-cultured human primary chondrocytes; type: cell-based; details: 300 μM, pellet culture 2 weeks
# Experimental: as §2
# [8] = cell pellet, 100, 200 or 300 μM, 28 days
# Chain of SIK3 (Q9Y2K2 whole entry, species assumed): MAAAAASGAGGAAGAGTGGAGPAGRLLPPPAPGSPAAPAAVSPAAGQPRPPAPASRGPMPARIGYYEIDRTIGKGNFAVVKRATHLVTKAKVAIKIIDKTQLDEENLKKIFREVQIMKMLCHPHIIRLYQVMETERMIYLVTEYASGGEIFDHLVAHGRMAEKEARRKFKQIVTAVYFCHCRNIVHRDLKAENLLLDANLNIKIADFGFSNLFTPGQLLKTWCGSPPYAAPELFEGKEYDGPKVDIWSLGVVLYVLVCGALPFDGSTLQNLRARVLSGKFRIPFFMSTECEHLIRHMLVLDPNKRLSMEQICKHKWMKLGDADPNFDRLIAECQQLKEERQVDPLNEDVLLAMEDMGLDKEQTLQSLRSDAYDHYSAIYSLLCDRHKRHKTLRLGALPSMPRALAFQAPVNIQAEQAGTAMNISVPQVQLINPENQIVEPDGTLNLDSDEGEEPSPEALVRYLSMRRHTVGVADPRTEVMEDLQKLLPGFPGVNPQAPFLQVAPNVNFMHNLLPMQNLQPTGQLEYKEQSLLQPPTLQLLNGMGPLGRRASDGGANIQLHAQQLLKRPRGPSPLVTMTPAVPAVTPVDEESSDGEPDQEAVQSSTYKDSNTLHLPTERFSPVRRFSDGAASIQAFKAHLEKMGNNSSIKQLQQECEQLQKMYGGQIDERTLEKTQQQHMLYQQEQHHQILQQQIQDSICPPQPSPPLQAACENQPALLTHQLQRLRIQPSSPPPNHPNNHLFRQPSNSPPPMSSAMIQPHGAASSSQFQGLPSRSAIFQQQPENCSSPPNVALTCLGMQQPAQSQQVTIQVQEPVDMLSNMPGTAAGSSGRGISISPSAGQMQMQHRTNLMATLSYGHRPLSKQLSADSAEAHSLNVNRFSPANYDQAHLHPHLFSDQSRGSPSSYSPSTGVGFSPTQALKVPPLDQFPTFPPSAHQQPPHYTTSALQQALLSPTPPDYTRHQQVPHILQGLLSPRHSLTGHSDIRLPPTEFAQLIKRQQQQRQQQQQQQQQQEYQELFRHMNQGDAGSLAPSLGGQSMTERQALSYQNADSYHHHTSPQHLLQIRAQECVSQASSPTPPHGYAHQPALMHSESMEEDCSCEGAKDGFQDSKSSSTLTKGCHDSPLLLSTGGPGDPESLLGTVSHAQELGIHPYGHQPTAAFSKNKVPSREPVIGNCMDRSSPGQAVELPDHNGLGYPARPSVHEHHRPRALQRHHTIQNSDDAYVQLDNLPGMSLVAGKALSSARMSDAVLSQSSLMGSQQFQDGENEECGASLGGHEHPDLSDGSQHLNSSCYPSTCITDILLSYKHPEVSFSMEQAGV
smiles,measurement,setting,value
"COCCc1c(C)c(O)c2c(c1C)C(=O)C(C)(C)C2 [14-O-methyl-onitin, 14-O-methylonitin]",SIK3 inhibitory activity (induced activity of CRTC2),[1],highly active than pterosin B
"COCCc1c(C)cc2c(c1C)C(=O)C(OC)C2 (stereo not shown) [14-O-methyl-pterosin G, 14-O-methylpterosin G]",SIK3 inhibitory activity (induced activity of CRTC2),[1],highly active than pterosin B
"Cc1c(O)c2c(c(C)c1CCCl)C(=O)C(C)(C)C2 [14-chloro-onitin, 14-deoxy-14-chloroonitin]",SIK3 inhibitory activity (induced activity of CRTC2),[1],highly active than pterosin B
"Cc1cc2c(c(C)c1CCO)C(=O)C(C)C2 (stereo not shown) [extracted pterosin B, pterosin B]",safranin O staining intensity,[2],increased with increasing concentration
same,amount of Col2a1 mRNA relative to Gapdh,[3]; [8],increased with increasing concentration
same,amount of Col10a1 mRNA relative to Gapdh,[3]; [8],decreased with increasing concentration
same,number of hypertrophic chondrocytes,[4],decreased
same,safranin O-stained area,[4],increased
same,BrdU-positive cell number,[4]; BrdU 8 hours before collection,increased
same,safranin O staining intensity,[5],increased
same,Findings of medial femoral epicondyle,"[6]; 300 μM into left knee articular cavity, one line per mouse (No. 4-7)",No apparent abnormalities; also recorded: Moderate osteoarthritis
same,Findings of medial femoral epicondyle,"[6]; 900 μM into left knee articular cavity, one line per mouse (No. 8-11)",No apparent abnormalities; also recorded: Moderate osteoarthritis
same,mRNA amount of COL1A1 relative to GAPDH,[7],decreased
same,mRNA amount of COL10A1 relative to GAPDH,[7],decreased
Cc1c(O)c2c(c(C)c1CCO)C(=O)C(C)(C)C2 [onitin],SIK3 inhibitory activity (induced activity of CRTC2),[1],highly active than pterosin B
Cc1cc2c(c(C)c1CCO)C(=O)C(C)C2 (stereo not shown) [pterosin B],SIK3 inhibitory activity (induced activity of CRTC2),[1],slightly inhibit
same,area of the articular cartilage on the medial femoral epicondyle,[6]; 300 μM or 900 μM intra-articular,increased with increasing concentration
COCCc1c(C)cc2c(c1C)C(=O)C(C)(C)C2 [pterosin I],SIK3 inhibitory activity (induced activity of CRTC2),[1],highly active than pterosin B
Cc1cc2c(c(C)c1CCO)C(=O)C(C)(C)C2 [pterosin Z],mRNA amount of Col10a1 relative to Gapdh,[3],decreased
same,SIK3 inhibitory activity (induced activity of CRTC2),[1],highly active than pterosin B
"Cc1cc2c(c(C)c1CCO)C(=O)C(C)C2 (stereo not shown) [synthesized pterosin B, pterosin B]",mRNA amount of Col10a1 relative to Gapdh,[3],decreased
same,mRNA amount of ACAN relative to GAPDH,[7],increased
same,mRNA amount of COL2A1 relative to GAPDH,[7],increased
same,mRNA amount of COL11A2 relative to GAPDH,[7],increased
same,mRNA amount of SOX9 relative to GAPDH,[7],increased
